{"source": "patent US10111854B2", "about": "“Synthesis and use of amine-containing flavonoids as potent anti-leishmanial agents” (The Hong Kong Polytechnic University, priority 2014, dated 2018)", "key": {"[1]": {"tested_on": "L. amazonensis LV78 promastigotes", "experiment": "Anti-promastigote activity (MTS assay), L. amazonensis LV78", "type": "cell-based", "settings": "72 hours", "procedure,_shortened": "(§1)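 Promastigotes (1×10^5 per well) in Schneider's medium pH 6.9 with 10% FBS, exposed to serial compound concentrations for 72 h at 27 °C. Viability by MTS/PMS reduction over 4 h, OD 490 nm; IC50 derived.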"}, "[2]": {"tested_on": "L. major FV1 promastigotes", "experiment": "Anti-promastigote activity (MTS assay), L. major FV1", "type": "cell-based", "settings": "72 hours", "procedure,_shortened": "as §1"}, "[3]": {"tested_on": "L. donovani HU3 promastigotes", "experiment": "Anti-promastigote activity (MTS assay), L. donovani HU3", "type": "cell-based", "settings": "72 hours", "procedure,_shortened": "as §1"}, "[4]": {"tested_on": "L. donovani Ld39 promastigotes", "experiment": "Anti-promastigote activity (MTS assay), L. donovani Ld39", "type": "cell-based", "settings": "72 hours", "procedure,_shortened": "as §1"}, "[5]": {"experiment": "Cytotoxicity, L929 fibroblasts", "type": "cell-based, mouse", "settings": "mouse", "method": "(§2) IC50 values of known antileishmanials and the amine-containing flavonoid monomers of the present invention to promastigotes (L. amazonensis LV78, L major FV1, L. donovani HU3, L. donovani 39), macrophages (Raw 264.7 and PEM) and mouse fibroblast (L929) were determined. The anti-promastigotes activities and cytotoxicity of the amine-containing flavonoid monomers of the invention are shown in Table 1."}, "[6]": {"tested_on": "L. amazonensis LV78 amastigotes", "experiment": "Anti-amastigote activity in infected PEM, L. amazonensis LV78", "type": "cell-based", "settings": "infected PEM, 3 days, Giemsa", "procedure,_shortened": "(§3)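 Adherent mouse PEM are infected with late-log promastigotes (20 parasites per macrophage) for 24 h, washed, and cultured with drug in supplemented DMEM with 10% FBS for 72 h at 37 °C. Percent infected cells and amastigotes per 100 macrophages are scored by Giemsa staining and IC50 is derived.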"}, "[7]": {"tested_on": "L. donovani HU3 amastigotes", "experiment": "Anti-amastigote activity in infected PEM, L. donovani HU3", "type": "cell-based", "settings": "for IC50: infected PEM, 3 days, Giemsa, SSG-sensitive", "procedure,_shortened": "as §3"}, "[8]": {"tested_on": "L. donovani Ld39 amastigotes (SSG-resistant)", "experiment": "Anti-amastigote activity in infected PEM, L. donovani Ld39", "type": "cell-based", "procedure,_shortened": "as §3"}, "[9]": {"experiment": "Preliminary oral bioavailability, single time point plasma concentration oral vs i.v.", "type": "in vivo, Balb/c mice", "settings": "hydrochloride salt in saline, 30 minutes, dose-normalized", "method": "FM01.HCl and FM05.HCl were administered to Balb/c mice via intravenous and passive oral administration. The blood plasma was collected at 30 minutes for LC-MSMS analysis and used for preliminary oral bioavailability screening. The corresponding plasma concentration was normalized by the administered dose for oral bioavailability calculation.\nFM01 and FM05 hydrochloride salt was dissolved in saline and administered to Balb/c mice either orally or i.v. Plasma level of FM01 and FM05 was determined 30 minutes later by LC-MS and their identity confirmed by LC-MS/MS. Plasma concentration from oral feeding was divided by that obtained from i.v. administration. […] In these preliminary studies, the ratios were 45% for FM01 and 64% for FM05 (FIG. 3)."}, "[10]": {"experiment": "Pharmacokinetics of FM05 hydrochloride salt, oral", "type": "in vivo, Balb/c mice", "settings": "male, Balb/c, mouse, plasma, 42 mg/kg, oral, saline; for half-life: po", "method": "Based on the result of the preliminary in vivo study, FM05 hydrochloride salt was selected for further investigation. FM05 hydrochloride salt was dissolved in saline at 4 mg/ml and administered to male balb/c at 42 mg/kg. Blood plasma samples were collected at various time points for pharmacokinetics analysis (n=2 to 3 for each time point)."}, "[11]": {"tested_on": "promastigotes (L. amazonensis LV78, L major FV1, L. donovani HU3, L. donovani 39)", "experiment": "Anti-promastigote activity, strain not given", "type": "cell-based", "settings": "Leishmania amazonensis; strain not specified; read-out: IC50 against promastigotes", "method": "Anti-promastigote activity was determined according to previous procedures (1) by Cell Titer 96® Aqueous Assay (Promega) that employed a tetrazolium compound. Promastigotes were seeded into 96-well flat bottom microtiter plate at 1×10^5 cells per well in a final volume of 100 μL medium and incubated with a series of concentrations of synthetic FM. Parasites were incubated at 27° C. for 72 hours. After 72 hours of incubation, 10 μL of MTS:PMS mixture [MTS:2-(4,5-Dimethylthiazol-2-yl-)-5-[3-(carboxymethoxy)phenyl]-2-(4-sulfophenyl)-2H-tetrazolium); PMS: phenazine methosulfate both purchased from Sigma] was added into each well of microtiter plate. The plate was then incubated at 27° C. for 4 hours for color development. After 4 hours of incubation, the OD values were determined at 490 nm using automatic microtiter plate reader (Bio-Rad).\nas §2"}, "[12]": {"tested_on": "amastigotes (L. amazonensis LV78, L. braziliensis UA847, L. donovani HU3, L. donovani 39)", "experiment": "Anti-amastigote activity, strain not given", "type": "cell-based", "settings": "strain not specified; visceral and cutaneous Leishmania; read-out: IC50 against amastigotes", "method": "Mouse peritoneal elicited macrophages (PEM) were obtained as previously described (2). A round cover slip (12 mm in diameter) was placed into each well of 24-well culture plate. Mouse PEM were resuspended in supplemented DMEM media containing 10% heat inactivated FBS (v/v), 100 U/mL penicillin and 100 μg/mL streptomycin and seeded into each well at a cell density of 1×10^5 cells per 500 μL. Macrophages were allowed to attach overnight. Non-adherent cells were removed by gentle washing with un-supplemented DMEM media twice. Adherent macrophages were infected with late-log promastigotes at a parasite-to-macrophage ratio of 20:1 overnight at 37° C. with 5% CO2. Non-internalized promastigotes were removed by washing twice with un-supplemented DMEM media. Infected macrophages were further incubated in 500 μL of supplemented DMEM media in the presence or absence of FM for 72 hours at 37° C. After incubation, cover slips were stained with Giemsa and the percentage of macrophages infected and number of amastigotes per 100 macrophages was enumerated.\nPEM cells were infected with late-log promastigotes (L. amazonensis LV78, L. braziliensis UA847, L. donovani HU3, L. donovani 39) for 24 hr at 37° C. Infected macrophages were then treated with various antileishmanials and incubated for 3 days at 37° C. After 3 days, the cover slips were stained with Giemsa. The number of amastigotes per 100 macrophages were determined and used to calculate IC50 values."}, "mouse fibroblast (L929)": {"tested_on": "mouse fibroblast (L929)", "experiment": "Cytotoxicity, L929 fibroblasts", "type": "cell-based", "settings": "mouse fibroblast L929", "method": "as §2"}, "[13]": {"tested_on": "peritoneal elicited macrophages (PEM)", "experiment": "Cytotoxicity, peritoneal elicited macrophages (PEM)", "type": "cell-based, mouse"}}, "note": "Where a name gives a salt, the structure may show the parent alone. Read-outs that look alike come from different tables or passages of the source.", "data": [{"compound": "O=c1cc(-c2ccc(OCCC3CCN(Cc4ccncc4)CC3)cc2)oc2ccccc12", "note": "[FM05, 2-(4-(2-(1-(pyridin-4-ylmethyl)piperidin-4-yl)ethoxy)phenyl)-4H-chromen-4-one]", "values": [{"measurement": "IC50", "setting": "[1]; Leishmania amazonensis", "value": "5.1 ± 1", "unit": "µM"}, {"measurement": "IC50", "setting": "[2]; Leishmania major", "value": "3.9 ± 0.8", "unit": "µM"}, {"measurement": "IC50", "setting": "[3]; Leishmania donovani", "value": "400 ± 100", "unit": "nM"}, {"measurement": "IC50", "setting": "[4]; Leishmania donovani", "value": "300 ± 100", "unit": "nM"}, {"measurement": "IC50", "setting": "[5]", "value": "> 100", "unit": "µM"}, {"measurement": "IC50", "setting": "[6]; Leishmania amazonensis, 72 h", "value": "4.1 ± 0.9", "unit": "µM"}, {"measurement": "Selective index (a)/(b)", "setting": "[7]; IC50 RAW264.7 over IC50 L. donovani HU3 amastigotes", "value": 10.5}, {"measurement": "IC50", "setting": "[7]; Leishmania donovani, 72 h", "value": 3500, "unit": "nM"}, {"measurement": "Selective index (a)/(c)", "setting": "[8]; IC50 RAW264.7 over IC50 L. donovani Ld39 amastigotes", "value": "<3.7"}, {"measurement": "IC50", "setting": "[8]; Leishmania donovani, 72 h, infected PEM, 3 days, Giemsa, SSG-resistant", "value": "> 10", "unit": "µM"}, {"measurement": "Ratio of plasma concentration from oral feeding to i.v. administration", "setting": "[9]", "value": 64, "unit": "%"}, {"measurement": "half-life", "setting": "[10]; read-out: Half-life (Distribution and absorption)", "value": 25, "unit": "min"}, {"measurement": "half-life", "setting": "[10]; read-out: Half-life (Elimination)", "value": 202, "unit": "min"}, {"measurement": "Cmax", "setting": "[10]", "value": 313, "unit": "ng/mL"}, {"measurement": "Tmax", "setting": "[10]", "value": 2, "unit": "h"}, {"measurement": "IC50", "setting": "[11]", "value": "< 5", "unit": "µM"}, {"measurement": "IC50", "setting": "[12]", "value": "< 5", "unit": "µM"}]}, {"compound": "O=c1cc(-c2ccc(OCCOCCN(Cc3ccccn3)Cc3ccccn3)cc2)oc2ccccc12", "note": "[FM09.HCl]", "values": [{"measurement": "IC50", "setting": "[1]", "value": 0.7, "unit": "µM"}, {"measurement": "IC50", "setting": "[2]", "value": "1.2 ± 0.3", "unit": "µM"}, {"measurement": "IC50", "setting": "[3]", "value": "200 ± 100", "unit": "nM"}, {"measurement": "IC50", "setting": "[4]", "value": "500 ± 100", "unit": "nM"}, {"measurement": "IC50", "setting": "mouse fibroblast (L929)", "value": "20.2 ± 8.4", "unit": "µM"}, {"measurement": "IC50", "setting": "[6]", "value": 0.4, "unit": "µM"}, {"measurement": "IC50", "setting": "[7]", "value": 1800, "unit": "nM"}]}, {"compound": "O=c1cc(-c2ccc(OCCN3CCN(Cc4ccncc4)CC3)cc2)oc2ccccc12", "note": "[FM01.HCl]", "values": [{"measurement": "IC50", "setting": "[1]", "value": "12.6 ± 0.9", "unit": "µM"}, {"measurement": "IC50", "setting": "[2]", "value": "6.7 ± 1.9", "unit": "µM"}, {"measurement": "IC50", "setting": "[4]", "value": "1300 ± 300", "unit": "nM"}, {"measurement": "IC50", "setting": "mouse fibroblast (L929)", "value": 33.7, "unit": "µM"}, {"measurement": "IC50", "setting": "[13]", "value": 55.9, "unit": "µM"}, {"measurement": "IC50", "setting": "[6]", "value": "> 9", "unit": "µM"}]}]}
